{
  "source": "patent US20040167217A1",
  "about": "“Neuroprotective effects of polyphenolic compounds” (priority 2003, published 2004)",
  "key": {"[1]": {"system": "Type 1 astrocytes (DI TNC1)", "assay": "Intracellular glutathione (GSH, GSSG) in astrocytes", "format": "cell-based", "method": "Type 1 astrocytes (DI TNC1) were purchased from the American Type Culture Collection (Manassas, VA) and cultured in Dulbecco's modified Eagle's medium containing 4.5 g/l glucose, 2 mM glutamine, 100 units/ ml penicillin, and 0.1 mg/ml streptomycin and supplemented with 10% fetal bovine serum. Cells were grown in 75-cm^2 flasks and maintained at 37° C. in a humidified atmosphere of air and 5% CO2. Confluent cells were exposed to various concentrations of curcumin, CAPE, or Curcumin-95. After each treatment (6 or 24 h), cells were harvested for the determination of heme oxygenase activity, HO-1 protein expression, and intracellular glutathione. […] GSH and GSSG levels were measured after 6- and 24- h exposure of astrocytes to curcumin and CAPE using a method previously described^19,20. Briefly, cells harvested in cold PBS were freeze-thawed three times, and an aliquot of this suspension was added to a buffer solution containing 12 mM EDTA and 10 mM 5,5′-dithiobis-(2-nitrobenzoic acid). Total glutathione was measured spectrophotometrically (optical density=412nm) using the glutathione reductase-recycling assay. To determine the amount of GSSG, an aliquot of the cell suspension was added to an equal volume of buffer containing EDTA and N-ethylmaleimide (10 mM). The sample was mixed and centrifuged, and the supernatant was passed through a C18 Sep-Pak cartridge (Waters, Milford, Mass.) to remove the excess N-ethylmaleimide. The sample was added to a cuvette containing 5,5′-dithiobis-(2-nitrobenzoic acid) and glutathione reductase, and the assay was performed as for the measurement of total glutathione. Intracellular glutathione was determined by comparison with a standard curve obtained with GSH and GSSG solutions and was expressed as nmoles/mg of protein."}, "Male Wistar rats [2]": {"system": "Male Wistar rats", "assay": "Lethality after intracerebroventricular T-BuOOH", "format": "in vivo, rat", "procedure": "(§1) Male Wistar rats, weighing 140-180 g, were used for all experiments. Ten animals per experimental group were pre-administrated with curcumin, suitably suspended in distilled water, at the dose of 50 mg/kg per day, through oral intubation, for 7 days, before an intracerebroventricular injection of T-butylhydroperoxide (T-BuOOH) 2 μl of a 70% solution of phosphate buffered saline (PBS)^16. Lethality was assessed after administration of T-BuOOH at time points: 0, 2, 6, 12, and 24 h, and was expressed as the percentage of survival relative to the lethality observed in T-BuOOH plus Tween/saline vehicle (control) treated animals (FIG. 11A). After 30h the surviving animals were sacrificed and their brains quickly removed to investigate lipid peroxide formation as an index of oxidative challenge in neurons.\n(§2) Male Wistar rats, weighing 140-180 g, were used for all experiments. […] Lethality was assessed after administration of T-BuOOH at time points: 0, 2, 6, 12, and 24 h, and was expressed as the percentage of survival relative to the lethality observed in T-BuOOH plus Tween/saline vehicle (control) treated animals (FIG. 12A). […]"}, "cerebellar granule cells": {"system": "cerebellar granule cells", "assay": "Oligonucleosome formation (cell death detection ELISA), low K+", "format": "cell-based, rat", "details": "for apoptosis (oligonucleosome formation) induced by low extracellular K+: curcumin 1, 5, 10, 25 and 50 μM", "procedure": "Primary cultures of cortical neurons and cerebellar granule cells were prepared. In brief, cortical neurons were prepared from fetal brain from 17-day pregnant rat and cerebellar granule cells from 8-day old rats. Brain tissues were dissociated through trypsinization in 0.025% trypsin solution and trituration. Dissociated cells were collected through centrifugation and resuspended in standard medium containing: basal Eagle's medium containing 10% fetal bovine serum (FCS), 2 mM glutamine, genatmycin 0.05 mg/ml, and 25 mM KCI. Cells were plated at a density of 1.8×10^6 onto 35-mm dishes coated with 10 micrograms/ml ply-L-lysine.\nTo induce programmed cell death in […] granule cells, two different experimental well-established paradigms: serum deprivation and low K^+, were performed. In particular, neurons were cultured after their plating in serum free medium containing 25 mM KCI or in standard medium for 6 days and then agitating them in a medium containing 10% FCS and 5 mM KCI. In both of these paradigms, control cells were grown in medium containing 10% FCS and 25 mM KCI.\nTo induce apoptosis in cortical neurons, β-amyloid peptide (1-40), a molecule related to the pathogenesis of Alzheimer disease and a well known inducer of apoptosis was added."}, "HO-1 [3]": {"system": "HO-1", "assay": "HO-1 protein expression, Western blot, astrocytes", "format": "cell-based", "procedure": "Type 1 astrocytes (DI TNC1) were purchased from the American Type Culture Collection (Manassas, VA) and cultured in Dulbecco's modified Eagle's medium containing 4.5 g/l glucose, 2 mM glutamine, 100 units/ ml penicillin, and 0.1 mg/ml streptomycin and supplemented with 10% fetal bovine serum. Cells were grown in 75-cm^2 flasks and maintained at 37° C. in a humidified atmosphere of air and 5% CO2. Confluent cells were exposed to various concentrations of curcumin, CAPE, or Curcumin-95. After each treatment (6 or 24 h), cells were harvested for the determination of heme oxygenase activity, HO-1 protein expression, and intracellular glutathione. Astrocytes growing in 24 wells were exposed to polyphenolic compounds, and cell viability was determined at 24 h. After treatment with curcumin, or CAPE, samples of astrocytes were also analyzed for HO-1 protein expression using a Western immunoblot technique described previously^18,19. Briefly, an equal amount of proteins (30 μg) for each sample was separated by SDS-polyacrylamide gel electrophoresis and transferred overnight to nitrocellulose membranes, and the non-specific binding of antibodies was blocked with 3% non-fat dried milk in PBS. Membranes were then probed with a polyclonal rabbit anti-HO-1 antibody (Stressgen) (1:1000 dilution in Tris-buffered saline, pH 7.4) for 2 h at room temperature. After three washes with PBS, blots were visualized using an amplified alkaline phosphatase kit from Sigma (Extra-3A), and the relative density of bands was analyzed by the use of an imaging densitometer (model GS-700; Bio-Rad, Herts, UK). Blots shown are representative of three independent experiments."}, "Male Wistar rats [4]": {"system": "Male Wistar rats", "assay": "Brain lipid peroxides (FOX2) after T-BuOOH", "format": "in vivo, rat", "procedure": "as §1, with “After 30h the surviving animals were sacrificed and their brains quickly removed to investigate lipid peroxide formation as an index of oxidative challenge in neurons.” left out\nBriefly, brain areas were dissected and homogenized in ice cold 0.1 M, pH 7.5 phosphate buffer (final vol 1.1 ml). […] Hydroperoxides were quantitated by the FOX2 method^17. […] After centrifugation at 12,000×g for 5 min to remove any flocculated material, absorbance of the supernatant was then read at 560 nm.\nas §2"}, "HO-1 [5]": {"system": "HO-1", "assay": "HO-1 protein expression, Western blot, cortical neurons", "format": "cell-based, rat", "procedure": "HO-1 and hsp70 protein levels were assessed by Western immunoblot technique using a polyclonal rabbit anti-HO-1 antibody (Stressgen; Victoria, Canada), and a polyclonal rabbit hsp70 antibody. Briefly, an equal amount of proteins (30 μg) for each sample was separated by SDS-polyacrylamide gel electrophoresis and transferred to nitrocellulose membranes, and the non-specific antibodies were blocked with 3% non-fat dried milk in PBS. Membranes were then probed with a polyclonal rabbit anti HO-1 antibody (Stressgen) (1:1000 dilution in Tris-buffered saline, pH 7,4) or with a monoclonal rabbit anti-Hsp72 antibody (Amersham Pharmacia Biotechnology) (1:1000 dilution in Tris-buffered saline, pH 7,4), that recognizes only the Hsp 70 inducible isoform. Blots were then visualized using an amplified alkaline phosphate kit from Sigma."}},
  "data": [
    {"smiles": "O=C(/C=C/c1ccc(O)c(O)c1)OCCc1ccccc1", "note": "[CAPE, Caffeic acid phenethyl ester]", "values": [
      {"measurement": "intracellular GSH", "setting": "[1]; 6 h, 50 μM", "result": "did not affect GSH"},
      {"measurement": "intracellular GSH", "setting": "[1]; 6 h, 15 and 30 μM", "result": "elevation of GSH"},
      {"measurement": "intracellular GSH", "setting": "[1]; 24 h, 50 μM", "result": "significant depletion of GSH"},
      {"measurement": "intracellular GSSG", "setting": "[1]; 24 h, 50 μM", "result": "concomitant elevation in GSSG"},
      {"measurement": "intracellular GSH", "setting": "[1]; 24 h, 15 and 30 μM", "result": "marked reduction"},
      {"measurement": "protection against T-BuOOH induced lethality", "setting": "Male Wistar rats [2]; 20 mg/kg per day oral for 7 days before i.c.v. T-BuOOH", "result": "marked protection"},
      {"measurement": "concentration with strongest / most effective anti-apoptotic effect", "setting": "cerebellar granule cells", "result": 25, "unit": "µM"},
      {"measurement": "apoptosis (oligonucleosome formation) induced by low extracellular K+", "setting": "cerebellar granule cells", "result": "strong dose-dependent anti-apoptotic effect"},
      {"measurement": "concentration of maximal HO-1 protein expression", "setting": "HO-1 [3]", "result": 30, "unit": "µM"},
      {"measurement": "HO-1 protein levels", "setting": "HO-1 [3]; low concentrations 15-50 μM", "result": "substantial increase"},
      {"measurement": "lipid peroxides in brain areas (oxidative damage)", "setting": "Male Wistar rats [4]; 20 mg/kg per day oral for 7 days before T-BuOOH", "result": "prevented oxidative damages to neuronal tissues"},
      {"measurement": "HO-1 protein expression / HO-1 induction", "setting": "HO-1 [5]", "result": "strongly induce HO-1"}
    ]},
    {"smiles": "COc1cc(C=CC(=O)CC(=O)C=Cc2ccc(O)c(OC)c2)ccc1O", "note": "[curcumin, 1,7-bis[4-Hydroxy-3-methoxyphenyl]-1,6-heptadiene-3,5-dione]", "values": [
      {"measurement": "glutathione oxidation (GSSG)", "setting": "[1]; 6 h, 50 μM", "result": "caused oxidation"},
      {"measurement": "intracellular GSH", "setting": "[1]; 6 h, 50 μM", "result": "without affecting the GSH content"},
      {"measurement": "intracellular GSH", "setting": "[1]; 6 h, 15 and 30 μM", "result": "significant increase"},
      {"measurement": "intracellular GSSG", "setting": "[1]; 6 h, 15 and 30 μM", "result": "significant increase"},
      {"measurement": "intracellular GSH", "setting": "[1]; 24 h, 15, 30, and 50 μM", "result": "concentration-dependent decrease in GSH"},
      {"measurement": "intracellular GSSG", "setting": "[1]; 24 h, 15, 30, and 50 μM", "result": "gradual and substantial increase in GSSG levels"},
      {"measurement": "animals that died after T-BuOOH", "setting": "Male Wistar rats [2]; 50 mg/kg per day oral for 7 days before i.c.v. T-BuOOH, over 24 h (T-BuOOH alone 60%)", "result": 20, "unit": "%"},
      {"measurement": "concentration with strongest / most effective anti-apoptotic effect", "setting": "cerebellar granule cells", "result": 25, "unit": "µM"},
      {"measurement": "apoptosis (oligonucleosome formation) induced by low extracellular K+", "setting": "cerebellar granule cells", "result": "significantly reduced apoptosis"},
      {"measurement": "HO-1 protein expression", "setting": "HO-1 [3]; 50-100 μM", "result": "failed to increase HO-1 expression"},
      {"measurement": "HO-1 protein expression", "setting": "HO-1 [3]; 6 h, 15 and 30 μM", "result": "marked up-regulation of HO-1 protein"},
      {"measurement": "HO-1 protein expression", "setting": "HO-1 [3]; 24 h after treatment", "result": "over-expression of HO-1 was also found"},
      {"measurement": "lipid peroxides in brain areas (oxidative damage)", "setting": "Male Wistar rats [4]; 50 mg/kg per day oral for 7 days before T-BuOOH, cortex, striatum, hippocampus, cerebellum", "result": "prevented the oxidative damages to neuronal tissues"},
      {"measurement": "HO-1 protein expression / HO-1 induction", "setting": "HO-1 [5]", "result": "directly correlated with HO-1 protein levels"}
    ]}
  ]
}
